Earlier results in patent US20030215513A1, “Method for releasing nanosized particles of an active substance from a diffusion-controlled pharmaceutical composition for oral use” (priority 2002, published 2003).
Read-outs that look alike come from different tables or passages of the source.

## OC[C@@H](O)[C@@H](O)[C@H](O)[C@H](O)CO [mannitol]
At 37° C.
  saturated concentration: about 17%

## OC[C@@H](O)[C@@H](O)[C@H](O)[C@@H](O)CO [sorbitol]
At 25° C.
  saturated concentration: about 66%
